Test results as given in PubChem BioAssay AID1508591.

Conditions: rat; liver microsomes; pH 7.4; 15.0 min; 1.0 µM

| SMILES | half-life [min] |
| --- | --- |
| CNc1nc2c(s1)C(c1ccc(Cl)cc1)CC(=O)N2 (centres undefined) | 2.07 |
| COc1ccc(-c2nc(N3CCOCC3)c3sc(CN(C)c4ncc(C(=O)NO)cn4)cc3n2)cn1 | > 30 |
| CC(C)C[C@H]1C(=O)N2CCC[C@H]2[C@]2(O)O[C@](NC(=O)[C@@H]3C=C4c5cccc6[nH]c(Br)c(c56)C[C@H]4N(C)C3)(C(C)C)C(=O)N12 | 1.59 |
| CCCCOc1ccc(CNC(=O)c2cc3n(n2)CCCN(Cc2ccc(C)cc2)C3=O)cc1 | 4.33 |
| Cc1cc(NS(=O)(=O)c2ccc(C(=O)NCc3ccc(Cl)c(Cl)c3)cc2)no1 | > 30 |
| COc1cc2c(cc1OC)C(C[C@H]1CN(S(=O)(=O)c3cccc(C#N)c3)CC[C@H]1CC(=O)O)=NCC2 | > 30 |
| COC(=N)c1nc2ccc3ncnc(Nc4ccc(F)cc4Br)c3c2s1 | > 30 |
| Cc1ccc(-c2cc(C(=O)Nc3cccc(S(=O)(=O)Nc4nccs4)c3)c3ccccc3n2)cc1C | 14 |
| CC1CCN(S(=O)(=O)c2ccc3c(ccc(=O)n3CC(=O)NCc3ccc(Cl)cc3)c2)CC1 | 1.45 |
| Cc1cc(-c2nnc3n2CCCCC3)c(C)n1-c1cccc(C(F)(F)F)c1 | 1.9 |
| COCCn1ccc2c(C3=CCOCC3)nc(-c3cccc(NC(C)=O)c3)cc21 | > 30 |
| Clc1ccc(-c2nc(-c3ccc(Br)o3)no2)c(Cl)c1 | 13 |
| Cc1ccc(-n2nc3c(N4CCCC(C(=O)NCc5ccccc5C)C4)nnc(C)c3c2C)cc1 (centres undefined) | 2.1 |
| C=Cc1ccc(Cn2c(C(=O)O)c(CNC3CCCCC3)c3ccc(OC)cc32)cc1 | 7.15 |
| COc1cccc(OC)c1C(=O)Nc1ccccc1C(=O)Nc1cccc(C(F)(F)F)c1 | 3.11 |
| COc1ccc(-c2ccc3ncc(Nc4ccncc4)n3n2)cc1OC | 23 |
| CC[C@H](C)[C@@H]([C@@H](CC(=O)N1CCC[C@H]1[C@H](OC)[C@@H](C)C(=O)N[C@@H](Cc1ccccc1)c1nccs1)OC)N(C)C(=O)[C@@H](NC(=O)[C@H](C(C)C)N(C)C)C(C)C | > 30 |
| FC(F)(F)c1ccc(CN2CCNc3cc(Nc4ccccc4)ncc3C2)cc1 | 17.3 |
| N[C@H]1CN(c2c(F)cc3c(=O)c(C(=O)O)cn(C4C[C@@H]4F)c3c2Cl)CC12CC2 (some centres undefined) | > 30 |
| CC(=O)N1CCc2c(sc3c2c(=O)n(-c2ccccc2Cl)c(=O)n3Cc2cccc(C)c2)C1 | 1.41 |
| Cc1ccc(C(=O)N2CCc3cc(-c4nc(NC(=O)Cc5ccc6c(c5)OCO6)sc4C)ccc32)cc1 | 6 |
| COc1ccc(-c2nc3ccccc3s2)cc1NC(=O)c1ccc(F)cc1 | > 30 |
| O=C(Nc1nnc(-c2ccc(Cl)cc2)o1)c1ccc(Cl)c(Cl)c1 | 3.9 |
| CCOC(=O)C1CCN(C(=O)C2(NC(=O)Nc3ccc(F)cc3F)CCCCC2)CC1 | 2.7 |
| CS(=O)(=O)Nc1cccc(-c2nccc(-n3ccnc3)n2)c1 | > 30 |

| SMILES | half-life [min] |
| --- | --- |
| COc1ccc(NC(=O)c2[nH]c(C)c(C(C)=O)c2C)cc1S(=O)(=O)N1CCCCCC1 | 3 |
| O=S(=O)(c1ccccc1)c1nnn2c1nc(NCc1cccs1)c1sccc12 | 1.88 |
| O=c1n(-c2ccc(Cl)cc2)nc2n1CCN(Cc1ccc(C(F)(F)F)cc1)C2 | > 30 |
| Cc1cc2c(-c3cccc(O)c3)nc(-c3c(C)noc3C)cc2[nH]1 | 24.2 |
| CCN1C(=O)c2ccccc2S(=O)c2ccc(NC(=O)Cc3ccc(F)cc3)cc21 (centres undefined) | 6.3 |
| O=c1c(-c2ccc(O)cc2)coc2cc(O)cc(O)c12 | > 30 |
| O=[N+]([O-])c1ccc(-c2nc(Nc3ccc(F)c(F)c3)c3ccccc3n2)cc1 | > 30 |
| CCc1ccc(-n2nnc(-c3nsc(NC(=O)c4ccccc4Cl)n3)c2C)cc1 | 10.9 |
| CCN(CC)CCOc1ccc2c(=O)c3ccc(Cl)cc3n(CCN(CC)CC)c2c1 | 7.9 |
| COc1ccc2[nH]c(S(=O)Cc3ncc(C)c(OC)c3C)nc2n1 (centres undefined) | 19.2 |
| NC(=O)C1CCN(c2ncc(-c3ccc(Br)cc3)s2)CC1 | 3.6 |
| Cc1ccc(-c2csc(NC(=O)c3ccccc3NS(=O)(=O)c3ccc(C)cc3)n2)cc1 | 2.6 |
| CCN1CCCC1CNC(=O)c1cc(S(=O)(=O)CC)c(N)cc1OC (centres undefined) | > 30 |
| CCOC(=O)C1(Cc2ccccc2C(F)(F)F)CCN(C2CCN(C(C)C)CC2)CC1 | > 30 |
| Fc1cnc(-c2ccccc2C(F)F)nc1NCc1ccc(-c2ccn[nH]2)cc1 | 10 |
| Cc1sc(NC(=O)Cc2ccc3c(c2)OCO3)nc1-c1ccc2c(c1)CCN2C(=O)C1CCCCC1 | 8.6 |
| COc1ccc(NC(=O)c2[nH]c(C)c(C(C)=O)c2C)cc1[S+](=O)([O-])Nc1ccccc1C#N | > 30 |
| O=C(NC1CC1)c1nc(-c2cccnc2)c2cnccn12 | > 30 |
| O=C(Nc1nc(-c2ccccc2)cs1)c1ccncc1NS(=O)(=O)c1ccccc1Cl | 15 |
| COc1ccc(C2c3c(oc4ccc(Cl)cc4c3=O)C(=O)N2CCCN(C)C)cc1OC (centres undefined) | > 30 |
| COc1ccc(NC(C)=O)cc1S(=O)(=O)Nc1ccc(Br)cc1 | > 30 |
| CN1C(=O)CN=C(c2ccc[nH]2)c2cc(Cl)ccc21 | 16 |
| O=C1Nc2ccccc2/C1=C/c1ccnc2ccccc12 | 4.5 |
| COc1cc2nccc(Oc3ccc(NC(=O)C4(C(=O)Nc5ccc(F)cc5)CC4)cc3)c2cc1OC | > 30 |
| Cc1c(C(=O)OCCOc2ccccc2)[nH]c2c1C(=O)CC(c1ccccc1)C2 (centres undefined) | 5.25 |

| SMILES | half-life [min] |
| --- | --- |
| COc1ccc(-n2nc(C)c([C@@H]3C=C[C@@H](NCc4ccc(N(C)C)cc4)C3)c2C)cc1 | 2.69 |
| Cc1ccccc1C(=O)N1CCC(C(=O)N2CCC(N3Cc4ccccc4C3=O)CC2)CC1 | 11.8 |
| CC1=C(C(=O)Nc2nccs2)C(c2ccccc2Br)N=C(Nc2nc3ccccc3o2)N1 (centres undefined) | 27 |
| COc1ccc(N2Cc3cccc(C(=O)Nc4ccc(C(C)C)cc4)c3C2=O)cc1 | > 30 |
| Cc1cc(C)nc(N2CCCC(C(=O)NCCc3ccc(F)cc3)C2)n1 (centres undefined) | 1.6 |
| C=CCc1cccc(CNc2ccc(S(=O)(=O)Nc3nccs3)cc2)c1O | 19 |
| CCNC(=O)c1ccc(-c2ccc3ncnc(NCC4CCCO4)c3c2)o1 (centres undefined) | > 30 |
| CC[C@@]1(O)C(=O)OCc2c1cc1n(c2=O)Cc2c-1nc1ccccc1c2CCNC(C)C | > 30 |
| COc1cccc(N2CCN(c3ncc4c(n3)CCN(Cc3ccc(Br)cc3)C4)CC2)c1 | 18.2 |
| O=C1CCCC2=C1C(c1ncccc1Br)N=C(Nc1nc3ccccc3o1)N2 (centres undefined) | 11.4 |
| O=C(O)c1ccccc1C(=O)Nc1ccc(-c2ccccc2)cc1 | > 30 |
| COc1ccc(C2=Nn3c(nnc3-c3ccncc3)SC2)cc1 | 1.9 |
| CCc1ccccc1OC[C@@H](O)CN[C@H]1CCCc2ccccc21 | 1.8 |
| Cc1ccnc(NC(=S)N2CCN(c3ccc(N)cc3)CC2)c1 | > 30 |
| CNc1nccc(-c2cccc3ccccc23)n1 | 7.7 |
| O=S(=O)(c1ccccc1)c1nc(-c2ccc(F)cc2)oc1N1CCCCCC1 | 1.95 |
| CCCc1cc(C)[nH]c(=O)c1CNC(=O)c1cc(-c2ccnc(N3CCN(C)CC3)c2)cc2c1cnn2C(C)C | 27.2 |
| CCOc1ccccc1CNS(=O)(=O)c1ccc(-c2cnc(C3CC3)o2)cc1 | 1.64 |
| O=C(CNC(=O)c1cnccn1)NC1CCCc2c1[nH]c1ccc(Cl)cc21 (centres undefined) | > 30 |
| COc1ccc(NS(=O)(=O)c2ccc(C)cc2)c(C(=O)Nc2nc(-c3ccccc3)cs2)c1 | 4.5 |
| O=C1Nc2cccc(Cl)c2/C1=C\c1cc(Cl)c(O)c(Cl)c1 | > 30 |
| Cc1cc(C)c(CNC(=O)c2nc(-c3ccc(CN(C)C)cc3)cc3c2ccn3C(C)C)c(=O)[nH]1 | > 30 |
| Cc1sc2c(c1C)C(c1ccc(Cl)cc1)=N[C@@H](CC(=O)Nc1ccc(OCCOCCOCCOCCNc3cccc4c3C(=O)N(C3CCC(=O)NC3=O)C4=O)cc1)c1nnc(C)n1-2 (some centres undefined) | 1.26 |
| CC1=C(C(=O)Nc2nnc(-c3ccccc3)s2)C(c2nn(C)cc2Cl)N=C(Nc2nc3ccccc3o2)N1 (centres undefined) | 11 |
| O=c1c2ccccc2nc2n1CCC2 | > 30 |

| SMILES | half-life [min] |
| --- | --- |
| O=S(=O)(Nc1nccs1)c1ccc(NCc2cccc(Br)c2O)cc1 | 14 |
| CC1=C(C(=O)Nc2nncs2)C(c2nn(C)cc2Cl)N=C(Nc2nc3ccccc3o2)N1 (centres undefined) | > 30 |
| CC(=O)c1c(C)[nH]c(C(=O)Nc2ccc(OCCCN(C)C)c(S(=O)(=O)Nc3ccc(Br)cc3)c2)c1C | > 30 |
| CN1CCc2cc3c(cc2C1)OCO3 | 1 |
| Cc1ccc(S(=O)(=O)Nc2cnccc2C(=O)Nc2nc(-c3ccccc3Cl)cs2)cc1 | 13 |
| O=C(NCc1ccccc1)c1cn2cc(-c3ccccc3)sc2n1 | 24 |
| CCOc1ccc(CCNC(=O)c2cc3sccc3n2C(C)C)cc1OCC | 1.7 |
| CC(=O)NCc1ccc(-c2csc(Nc3cccc(C)c3)n2)o1 | > 30 |
| O=C(NCc1cccnc1)c1nc(-c2ccc(Cl)nc2)c2cnccn12 | 26.6 |
| CC1(COc2ccc3c(c2)ncn3-c2ccc3cccc(N4CCC(N)CC4)c3n2)COC1 | > 30 |
| CNC(=O)Cn1cc(-c2ccc3c(c2)C(F)CC32NC(=O)N(CC(=O)N(Cc3ccc(F)cc3)[C@@H](C)C(F)(F)F)C2=O)cn1 (some centres undefined) | 18.9 |
| O=C(NCc1ccc(S(=O)(=O)c2cccc(C(F)(F)F)c2)cc1)c1cnc2[nH]ncc2c1 | > 30 |
| O=C(NCCCCc1ccccc1)C1CCN(c2nc(-c3ccc(Br)cc3)cs2)CC1 | 4.1 |
| O=C(Nc1ccc(N2CCN(C(=O)c3ccccc3F)CC2)cc1)c1cncc(Br)c1 | > 30 |
| Nc1ncc(S(=O)(=O)N2CCOCC2)s1 | > 30 |
| CSc1ccc(-c2cnc(N3CCC(C(N)=O)CC3)s2)cc1 | 1.53 |
| CNc1nc(-c2ccc3c(N)n[nH]c3c2)cc(N2C[C@@H](C(=O)NC3CCCCC3)CC[C@@H]2C)n1 | 1.85 |
| Cc1ccc(NS(=O)(=O)c2cc3c(cc2N[C@H](C)CO)NC(=O)CC3)cc1C | 1.71 |
| COc1ccc(OC)c(CN2CCNc3cc(Nc4ccccc4)ncc3C2)c1 | 2.23 |
| c1ccc2c(N3CCOCC3)nc(-c3ccncc3)nc2c1 | 10 |
| COc1ccc(CNC(=O)c2sc3nc(C)cc(C)c3c2N)cc1 | 8.47 |
| O=S(=O)(Nc1ccc(C2CCNCC2)cc1)c1ccc(NCc2cccc(Cl)c2O)cc1 | 20 |
| CN1CCN(Cc2ccc(NC(=O)Cc3ccc(Oc4cc(NC(=O)C5CC5)ncn4)cc3)cc2C(F)(F)F)CC1 | > 30 |
| Cc1ccc(S(=O)(=O)Nc2cnccc2C(=O)Nc2nc(-c3ccc(C)c(C)c3)cs2)cc1 | 2.1 |
